# Measurements reported in patent US7732375B2, “Hexyl carboxanilides and their use for controlling fungi” (Bayer CropScience AG, priority 2003, dated 2010).
# Experiments:
# Podosphaera leucotricha = assay: Podosphaera test (apple)/protective; assay type: in vivo; settings: 240 h, protective, application rate 100 g/ha, evaluation 10 days after inoculation, read-out: Efficacy in %
# Method: (§1) • Solvents: 24.5 parts by weight of acetone • 24.5 parts by weight of dimethylacetamide • Emulsifier: 1 part by weight of alkylaryl polyglycol ether
# (§2) To produce a suitable preparation of active compound, 1 part by weight of active compound is mixed with the stated amounts of solvents and emulsifier, and the concentrate is diluted with water to the desired concentration.
# To test for protective activity, young plants are sprayed with the preparation of active compound at the stated application rate. After the spray coating has dried on, the plants are inoculated with an aqueous spore suspension of the apple mildew pathogen Podosphaera leucotricha. The plants are then placed in a greenhouse at about 23° C. and a relative atmospheric humidity of about 70%.
# (§3) Evaluation is carried out 10 days after the inoculation. 0% means an efficacy which corresponds to that of the control, whereas an efficacy of 100% means that no infection is observed.
# Venturia inaequalis = assay: Venturia test (apple)/protective; assay type: in vivo; settings: protective, application rate 100 g/ha, evaluation 10 days after inoculation; for pest or weed control at 100 g/ha: Venturia inaequalis, 240 h, read-out: Efficacy in %
# Method: as §1, §2
# To test for protective activity, young plants are sprayed with the preparation of active compound at the stated application rate. After the spray coating has dried on, the plants are inoculated with an aqueous conidia suspension of the apple scab pathogen Venturia inaequalis and then remain in an incubation cabin at about 20° C. and 100% relative atmospheric humidity for 1 day.
# The plants are then placed in a greenhouse at about 21° C. and a relative atmospheric humidity of about 90%.
# as §3
# [1] = test system: Erysiphe graminis f.sp. hordei; assay: Erysiphe test (barley)/protective; assay type: in vivo; settings: protective, application rate 500 g/ha, evaluation 7 days after inoculation
# Method: Solvent: 25 parts by weight of N,N-dimethylacetamide Emulsifier: 0.6 part by weight of alkylaryl polyglycol ether To produce a suitable preparation of active compound, 1 part by weight of active compound is mixed with the stated amounts of solvent and emulsifier, and the concentrate is diluted with water to the desired concentration. To test for protective activity, young plants are sprayed with the preparation of active compound at the stated application rate. After the spray coating has dried on, the plants are dusted with spores of Erysiphe graminis f.sp. hordei. The plants are placed in a greenhouse at a temperature of about 20° C. and a relative atmospheric humidity of about 80% to promote the development of mildew pustules. Evaluation is carried out 7 days after the inoculation. 0% means an efficacy which corresponds to that of the control, whereas an efficacy of 100% means that no infection is observed.
# Botrytis cinerea = assay: Botrytis test (bean)/protective; assay type: in vivo; settings: protective, application rate 500 g/ha, evaluation 2 days after inoculation; for pest or weed control at 500 g/ha: Botrytis cinerea, 48 h, read-out: Efficacy in %
# Method: as §1, §2
# To test for protective activity, young plants are sprayed with the preparation of active compound at the stated application rate. After the spray coating has dried on, 2 small pieces of agar colonized by Botrytis cinerea are placed onto each leaf. The inoculated plants are placed in a dark chamber at about 20° C. and 100% relative atmospheric humidity.
# 2 days after the inoculation, the size of the infected areas on the leaves is evaluated. 0% means an efficacy which corresponds to that of the control, whereas an efficacy of 100% means that no infection is observed.
# Puccinia recondita = assay: Puccinia test (wheat)/protective; assay type: in vivo; settings: evaluation 10 days after inoculation
# Method: • a) Solvent: 50 parts by weight of N,N-dimethylacetamide Emulsifier: 1 part by weight of alkylaryl polyglycol ether • b) Solvent: 25 parts by weight of N,N-dimethylacetamide Emulsifier: 0.6 part by weight of alkylaryl polyglycol ether To produce a suitable preparation of active compound, 1 part by weight of active compound is mixed with the stated amounts of solvent and emulsifier, and the concentrate is diluted with water to the desired concentration. To test for protective activity, young plants are sprayed with the preparation of active compound at the stated application rate. After the spray coating has dried on, the plants are sprayed with a conidia suspension of Puccinia recondita. The plants remain in an incubation cabin at 20° C. and 100% relative atmospheric humidity for 48 hours. The plants are then placed in a greenhouse at a temperature of about 20° C. and a relative atmospheric humidity of 80% to promote the development of rust pustules. Evaluation is carried out 10 days after the inoculation. 0% means an efficacy which corresponds to that of the control, whereas an efficacy of 100% means that no infection is observed.
# Sphaerotheca fuliginea = assay: Sphaerotheca test (cucumber)/protective; assay type: in vivo; settings: protective, application rate 750 g/ha, evaluation 7 days after inoculation
# Method: Solvent: 49 parts by weight of N,N-dimethylformamide Emulsifier: 1 part by weight of alkylaryl polyglycol ether To produce a suitable preparation of active compound, 1 part by weight of active compound is mixed with the stated amounts of solvent and emulsifier, and the concentrate is diluted with water to the desired concentration. To test for protective activity, young cucumber plants are sprayed with the preparation of active compound at the stated application rate. 1 day after treatment the plants are inoculated with a spore suspension of Sphaerotheca fuliginea. The plants are then placed in a greenhouse at a relative atmospheric humidity of 70% and a temperature of 23° C. Evaluation is carried out 7 days after the inoculation. 0% means an efficacy which corresponds to that of the control, whereas an efficacy of 100% means that no infection is observed.
# [2] = logP determination by HPLC on reversed-phase column (C 18), EEC Directive 79/831 Annex V.A8; assay type: physicochemical; settings: reversed-phase HPLC column (C 18), pH 2.3, 0.1% aqueous phosphoric acid and acetonitrile, 43° C.
# Method: The determination of the logP values given in the preparation examples and tables above is carried out in accordance with EEC Directive 79/831 Annex V.A8 by HPLC (High Performance Liquid Chromatography) on a reversed-phase column (C 18). Temperature: 43° C. The determination is carried out in the acidic range at pH 2.3 using the mobile phases, 0.1% aqueous phosphoric acid and acetonitrile; linear gradient from 10% acetonitrile to 90% acetonitrile. Calibration is carried out using unbranched alkan-2-ones (of 3 to 16 carbon atoms) with known logP values (determination of the logP values by the retention times using linear interpolation between two successive alkanones).
# [3] = wheat; application rate 500 g/ha; solvent/emulsifier a)
# [4] = wheat; application rate 500 g/ha; solvent/emulsifier b)
smiles,measurement,setting,value
CCC(C)(C)CC(C)c1ccccc1NC(=O)c1sccc1C (stereo not drawn) [drawing 88],pest or weed control at 100 g/ha,Podosphaera leucotricha,98%
CC(CC(C)(C)C)c1ccccc1NC(=O)c1cn(C)nc1Cl (stereo not drawn) [drawing 91],pest or weed control at 100 g/ha,Podosphaera leucotricha,100%
Cc1ccsc1C(=O)Nc1ccccc1C(C)CC(C)(C)C (stereo not drawn) [drawing 94],pest or weed control at 100 g/ha,Venturia inaequalis,96%
CC(CC(C)(C)C)c1ccccc1NC(=O)c1cn(C)nc1Cl (stereo not drawn) [drawing 101],pest or weed control at 100 g/ha,Venturia inaequalis,100%
CCC(C)(C)CC(C)c1ccccc1NC(=O)C1=C(C)OCCS1 (stereo not drawn) [drawing 128],Efficacy in %,[1],94%
CC(CC(C)(C)C)c1ccccc1NC(=O)c1cn(C)nc1C(F)(F)F (stereo not drawn) [drawing 111],Efficacy in %,Botrytis cinerea,97%
CC(CC(C)(C)C)c1ccccc1NC(=O)c1c(C(F)(F)F)nn(C)c1Cl (stereo not drawn),pest or weed control at 100 g/ha,Podosphaera leucotricha,97%
CCC(C)(C)CC(C)c1ccccc1NC(=O)c1ccoc1C (stereo not drawn) [drawing 107],pest or weed control at 500 g/ha,Botrytis cinerea,88%
Cc1nc(C)c(C(=O)Nc2ccccc2C(C)CC(C)(C)C)s1 (stereo not drawn) [drawing 126],Efficacy in %,[1],100%
Cc1nc(C(F)(F)F)c(C(=O)Nc2ccccc2C(C)CC(C)(C)C)s1 (stereo not drawn) [drawing 130],Efficacy in %,[1],100%
CCC(C)(C)CC(C)c1ccccc1NC(=O)c1sccc1C (stereo not drawn) [drawing 98],pest or weed control at 100 g/ha,Venturia inaequalis,99%
CC(CC(C)(C)C)c1ccccc1NC(=O)c1cn(C)nc1Cl (stereo not drawn) [drawing 110],pest or weed control at 500 g/ha,Botrytis cinerea,95%
CCC(C)(C)CC(C)c1ccccc1NC(=O)c1ccoc1C (stereo not drawn) [drawing 87],pest or weed control at 100 g/ha,Podosphaera leucotricha,91%
Cc1nc(C(F)(F)F)c(C(=O)Nc2ccccc2C(C)CC(C)(C)C)s1 (stereo not drawn) [drawing 112],pest or weed control at 500 g/ha,Botrytis cinerea,95%
CCC(C)(C)CC(C)c1ccccc1NC(=O)c1cn(C)nc1C(F)(F)F (stereo not drawn),Efficacy in %,Puccinia recondita; [3],100%
CCC(C)(C)CC(C)c1ccccc1NC(=O)C1=C(C)OCCS1 (stereo not drawn) [drawing 114],Efficacy in %,Puccinia recondita; [3],100%
Cc1ccsc1C(=O)Nc1ccccc1C(C)CC(C)(C)C (stereo not drawn) [drawing 104],pest or weed control at 500 g/ha,Botrytis cinerea,100%
Cc1nc(C)c(C(=O)Nc2ccccc2C(C)CC(C)(C)C)s1 (stereo not drawn) [drawing 113],Efficacy in %,Puccinia recondita; [3],100%
CCC(C)(C)CC(C)c1ccccc1NC(=O)C1=C(C)OCCS1 (stereo not drawn) [drawing 96],pest or weed control at 100 g/ha,Venturia inaequalis,100%
CCC(C)(C)CC(C)c1ccccc1NC(=O)c1ccoc1C (stereo not drawn) [drawing 122],Efficacy in %,Puccinia recondita; [4],100%
Cc1ccsc1C(=O)Nc1ccccc1C(C)CC(C)(C)C (stereo not drawn) [drawing 124],Efficacy in %,Sphaerotheca fuliginea,95%
Cc1occc1C(=O)Nc1ccccc1C(C)CC(C)(C)C (stereo not drawn),Efficacy in %,Puccinia recondita; [4],100%
CCc1nn(C)c(Cl)c1C(=O)Nc1ccccc1C(C)CC(C)(C)C (stereo not drawn) [drawing 118],Efficacy in %,Puccinia recondita; [3],100%
CC(CC(C)(C)C)c1ccccc1NC(=O)c1cn(C)nc1C(F)(F)F (stereo not drawn) [drawing 89],pest or weed control at 100 g/ha,Podosphaera leucotricha,95%
Cc1ccsc1C(=O)Nc1ccccc1C(C)CC(C)(C)C (stereo not drawn) [drawing 85],pest or weed control at 100 g/ha,Podosphaera leucotricha,85%
CC1=C(C(=O)Nc2ccccc2C(C)CC(C)(C)C)SCCO1 (stereo not drawn) [drawing 121],Efficacy in %,Puccinia recondita; [4],100%
CCC(C)(C)CC(C)c1ccccc1NC(=O)C1=C(C)OCCS1 (stereo not drawn) [drawing 86],pest or weed control at 100 g/ha,Podosphaera leucotricha,94%
Cc1ccsc1C(=O)Nc1ccccc1C(C)CC(C)(C)C (stereo not drawn) [drawing 119],Efficacy in %,Puccinia recondita; [4],100%
CCc1nn(C)c(Cl)c1C(=O)Nc1ccccc1C(C)CC(C)(C)C (stereo not drawn) [drawing 90],pest or weed control at 100 g/ha,Podosphaera leucotricha,96%
CC(CC(C)(C)C)c1ccccc1NC(=O)c1cn(C)nc1C(F)(F)F (stereo not drawn) [drawing 117],Efficacy in %,Puccinia recondita; [3],100%
Cc1nc(C)c(C(=O)Nc2ccccc2C(C)CC(C)(C)C)s1 (stereo not drawn) [drawing 123],Efficacy in %,Sphaerotheca fuliginea,95%
Cc1nc(C(F)(F)F)c(C(=O)Nc2ccccc2C(C)CC(C)(C)C)s1 (stereo not drawn) [drawing 93],pest or weed control at 100 g/ha,Podosphaera leucotricha,100%
CCC(C)(C)CC(C)c1ccccc1NC(=O)c1ccoc1C (stereo not drawn) [drawing 129],Efficacy in %,[1],100%
Cc1nc(Cl)sc1C(=O)Nc1ccccc1C(C)CC(C)(C)C (stereo not drawn),Efficacy in %,Puccinia recondita; [3],100%
CC1=C(C(=O)Nc2ccccc2C(C)CC(C)(C)C)SCCO1 (stereo not drawn) [drawing 105],pest or weed control at 500 g/ha,Botrytis cinerea,95%
CC(CC(C)(C)C)c1ccccc1NC(=O)c1cn(C)nc1C(Cl)Cl (stereo not drawn) [Example 1],chromatographic logP,[2],4.02
CC(CC(C)(C)C)c1ccccc1NC(=O)c1cn(C)nc1C(F)(F)F (stereo not drawn) [drawing 99],pest or weed control at 100 g/ha,Venturia inaequalis,95%
CC(F)c1nn(C)cc1C(=O)Nc1ccccc1C(C)CC(C)(C)C (stereo not drawn),Efficacy in %,Sphaerotheca fuliginea,90%
Cc1nc(C(F)(F)F)c(C(=O)Nc2ccccc2C(C)CC(C)(C)C)s1 (stereo not drawn) [drawing 103],pest or weed control at 100 g/ha,Venturia inaequalis,99%
CCC(C)(C)CC(C)c1ccccc1NC(=O)c1ccoc1C (stereo not drawn) [drawing 97],pest or weed control at 100 g/ha,Venturia inaequalis,93%
CC(CC(C)(C)C)c1ccccc1NC(=O)c1cn(C)nc1C(F)(F)F (stereo not drawn) [drawing 109],pest or weed control at 500 g/ha,Botrytis cinerea,100%
CCC(C)(C)CC(C)c1ccccc1NC(=O)c1sccc1C (stereo not drawn) [drawing 108],pest or weed control at 500 g/ha,Botrytis cinerea,100%
"Cn1cc(C(=O)Cl)c(C(Cl)Cl)n1 [Example (II-1), 3-dichloromethyl-1-methyl-1H-pyrazole-4-carbonyl chloride]",chromatographic logP,[2],1.8
Cc1ccsc1C(=O)Nc1ccccc1C(C)CC(C)(C)C (stereo not drawn) [drawing 127],Efficacy in %,[1],100%
CC1=C(C(=O)Nc2ccccc2C(C)CC(C)(C)C)SCCO1 (stereo not drawn) [drawing 95],pest or weed control at 100 g/ha,Venturia inaequalis,100%
CC(CC(C)(C)C)c1ccccc1NC(=O)c1cn(C)nc1C(F)(F)F (stereo not drawn) [drawing 102],Efficacy in %,Venturia inaequalis,99%
CCc1nn(C)c(Cl)c1C(=O)Nc1ccccc1C(C)CC(C)(C)C (stereo not drawn) [drawing 100],pest or weed control at 100 g/ha,Venturia inaequalis,92%
CCC(C)(C)CC(C)c1ccccc1NC(=O)C1=C(C)OCCS1 (stereo not drawn) [drawing 106],pest or weed control at 500 g/ha,Botrytis cinerea,100%
